# Data published in the supplement of paper PMC10307832.
# Experiments:
# Assay in all cases: relative viability (nuclei count vs DMSO), 5 days (fraction); higher = more cells survive
# [1] = tested on: Calu-6
# In short: (§1)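 Values are medians from duplicate plates. Each reflects relative viability, defined as the nuclei count of treated wells over that of vehicle wells. Lung cancer cell lines in 1536-well plates were pin-tool dosed one day after seeding with one drug alone or with a fixed anchor-drug dose plus five library-drug doses (not always all listed) in √10 steps, then fixed, stained and imaged at 4× after 5 days.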
# [2] = tested on: NCI-H1623
# In short: as §1
# [3] = tested on: NCI-H2342
# In short: as §1
# [4] = tested on: EBC-1
# In short: as §1
# [5] = tested on: IA-LM
# In short: as §1
# [6] = tested on: A549
# In short: as §1
# [7] = tested on: NCI-H1703
# In short: as §1
# [8] = tested on: NCI-H1563
# In short: as §1
# [9] = tested on: NCI-H1299
# In short: as §1
# [10] = tested on: SW 900
# In short: as §1
# [11] = tested on: NCI-H1648
# In short: as §1
# [12] = tested on: NCI-H522
# In short: as §1
compound,measurement,setting,value
O=C(O)CCCCC(CCSCc1ccccc1)SCc1ccccc1 (configuration not stated) [CPI-613] + COc1cc2c(Oc3ccc(NC(=O)C4(C(=O)Nc5ccc(F)cc5)CC4)cc3F)ccnc2cc1OCCCN1CCOCC1 [Foretinib] (partner 0.25 µM),relative viability,[1]; first compound 5 µM,0.872
same,relative viability,[1]; first compound 15.81 µM,0.848
same,relative viability,[1]; first compound 50 µM,0.865
same,relative viability,[1]; first compound 158.11 µM,0.769
same,relative viability,[1]; first compound 500 µM,0.675
same,relative viability,[2]; first compound 5 µM,0.845
same,relative viability,[2]; first compound 15.81 µM,0.921
same,relative viability,[2]; first compound 50 µM,0.972
same,relative viability,[2]; first compound 158.11 µM,0.59
same,relative viability,[2]; first compound 500 µM,0.831
same,relative viability,[3]; first compound 5 µM,1.04
same,relative viability,[3]; first compound 15.81 µM,0.978
same,relative viability,[3]; first compound 50 µM,1.04
same,relative viability,[3]; first compound 158.11 µM,1.12
same,relative viability,[3]; first compound 500 µM,1.05
same,relative viability,[4]; first compound 5 µM,0.0958
same,relative viability,[4]; first compound 15.81 µM,0.0971
same,relative viability,[4]; first compound 50 µM,0.0899
same,relative viability,[4]; first compound 158.11 µM,0.0957
same,relative viability,[4]; first compound 500 µM,0.0975
same,relative viability,[5]; first compound 5 µM,1.12
same,relative viability,[5]; first compound 15.81 µM,1.16
same,relative viability,[5]; first compound 50 µM,1.13
same,relative viability,[5]; first compound 158.11 µM,0.933
same,relative viability,[5]; first compound 500 µM,0.872
same,relative viability,[6]; first compound 5 µM,0.942
same,relative viability,[6]; first compound 15.81 µM,0.829
same,relative viability,[6]; first compound 50 µM,0.848
same,relative viability,[6]; first compound 158.11 µM,0.944
same,relative viability,[6]; first compound 500 µM,0.641
same,relative viability,[7]; first compound 5 µM,0.442
same,relative viability,[7]; first compound 15.81 µM,0.353
same,relative viability,[7]; first compound 158.11 µM,0.331
same,relative viability,[7]; first compound 500 µM,0.33
same,relative viability,[8]; first compound 5 µM,0.957
same,relative viability,[8]; first compound 15.81 µM,0.896
same,relative viability,[8]; first compound 50 µM,0.892
same,relative viability,[8]; first compound 158.11 µM,0.665
same,relative viability,[8]; first compound 500 µM,0.231
same,relative viability,[9]; first compound 5 µM,1.03
same,relative viability,[9]; first compound 15.81 µM,1.04
same,relative viability,[9]; first compound 50 µM,1.1
same,relative viability,[9]; first compound 158.11 µM,1.08
same,relative viability,[9]; first compound 500 µM,1.14
same,relative viability,[10]; first compound 5 µM,0.743
same,relative viability,[10]; first compound 15.81 µM,0.776
same,relative viability,[10]; first compound 50 µM,0.792
same,relative viability,[10]; first compound 158.11 µM,0.418
same,relative viability,[10]; first compound 500 µM,0.0443
O=C(O)CCCCC(CCSCc1ccccc1)SCc1ccccc1 (configuration not stated) [CPI-613] + COc1cccc2cc(-c3nc([C@H]4CC[C@H](C(=O)O)CC4)n4ncnc(N)c34)[nH]c12 [OSI-027] (partner 0.5 µM),relative viability,[11]; first compound 5 µM,0.273
same,relative viability,[11]; first compound 15.81 µM,0.241
same,relative viability,[11]; first compound 50 µM,0.22
same,relative viability,[11]; first compound 500 µM,0.203
same,relative viability,[2]; first compound 5 µM,0.431
same,relative viability,[2]; first compound 15.81 µM,0.436
same,relative viability,[2]; first compound 50 µM,0.438
same,relative viability,[2]; first compound 158.11 µM,0.368
same,relative viability,[2]; first compound 500 µM,0.408
same,relative viability,[12]; first compound 5 µM,0.706
same,relative viability,[12]; first compound 15.81 µM,0.747
same,relative viability,[12]; first compound 50 µM,0.7
same,relative viability,[12]; first compound 158.11 µM,0.612
same,relative viability,[12]; first compound 500 µM,0.467
same,relative viability,[3]; first compound 5 µM,0.568
same,relative viability,[3]; first compound 15.81 µM,0.572
same,relative viability,[3]; first compound 50 µM,0.643
same,relative viability,[3]; first compound 158.11 µM,0.552
same,relative viability,[3]; first compound 500 µM,0.643
same,relative viability,[8]; first compound 5 µM,0.76
same,relative viability,[8]; first compound 15.81 µM,0.652
same,relative viability,[8]; first compound 50 µM,0.814
same,relative viability,[8]; first compound 158.11 µM,0.52
same,relative viability,[8]; first compound 500 µM,0.223
same,relative viability,[10]; first compound 5 µM,0.44
same,relative viability,[10]; first compound 15.81 µM,0.547
same,relative viability,[10]; first compound 50 µM,0.65
same,relative viability,[10]; first compound 158.11 µM,0.245
same,relative viability,[10]; first compound 500 µM,0.0283
O=C(O)CCCCC(CCSCc1ccccc1)SCc1ccccc1 (configuration not stated) [CPI-613] + Cc1cc(Nc2cc(N3CCN(C)CC3)nc(Sc3ccc(NC(=O)C4CC4)cc3)n2)n[nH]1 [Tozasertib] (partner 0.1 µM),relative viability,[11]; first compound 5 µM,0.473
same,relative viability,[11]; first compound 15.81 µM,0.312
same,relative viability,[11]; first compound 50 µM,0.589
same,relative viability,[11]; first compound 500 µM,0.391
same,relative viability,[2]; first compound 5 µM,0.442
same,relative viability,[2]; first compound 15.81 µM,0.387
same,relative viability,[2]; first compound 50 µM,0.421
same,relative viability,[2]; first compound 158.11 µM,0.417
same,relative viability,[2]; first compound 500 µM,0.426
same,relative viability,[12]; first compound 5 µM,0.512
same,relative viability,[12]; first compound 15.81 µM,0.563
same,relative viability,[12]; first compound 50 µM,0.573
same,relative viability,[12]; first compound 158.11 µM,0.419
same,relative viability,[12]; first compound 500 µM,0.325
same,relative viability,[3]; first compound 5 µM,0.523
same,relative viability,[3]; first compound 15.81 µM,0.527
same,relative viability,[3]; first compound 50 µM,0.511
same,relative viability,[3]; first compound 158.11 µM,0.484
same,relative viability,[3]; first compound 500 µM,0.625
same,relative viability,[10]; first compound 5 µM,0.511
same,relative viability,[10]; first compound 15.81 µM,0.557
same,relative viability,[10]; first compound 50 µM,0.473
same,relative viability,[10]; first compound 158.11 µM,0.199
same,relative viability,[10]; first compound 500 µM,0.0732
